Reference: patent publication US20040156869A1, “2-substituted quinazolin-4-ylamine analogues” (Neurogen Corporation, priority 2002, published 2004)

target: human capsaicin receptor (VR1) (Homo sapiens, UniProt Q8NER1); test: Capsaicin receptor binding assay ([3H]RTX competition, VR1-transfected HEK293 membranes)
Sequence (Q8NER1 whole entry): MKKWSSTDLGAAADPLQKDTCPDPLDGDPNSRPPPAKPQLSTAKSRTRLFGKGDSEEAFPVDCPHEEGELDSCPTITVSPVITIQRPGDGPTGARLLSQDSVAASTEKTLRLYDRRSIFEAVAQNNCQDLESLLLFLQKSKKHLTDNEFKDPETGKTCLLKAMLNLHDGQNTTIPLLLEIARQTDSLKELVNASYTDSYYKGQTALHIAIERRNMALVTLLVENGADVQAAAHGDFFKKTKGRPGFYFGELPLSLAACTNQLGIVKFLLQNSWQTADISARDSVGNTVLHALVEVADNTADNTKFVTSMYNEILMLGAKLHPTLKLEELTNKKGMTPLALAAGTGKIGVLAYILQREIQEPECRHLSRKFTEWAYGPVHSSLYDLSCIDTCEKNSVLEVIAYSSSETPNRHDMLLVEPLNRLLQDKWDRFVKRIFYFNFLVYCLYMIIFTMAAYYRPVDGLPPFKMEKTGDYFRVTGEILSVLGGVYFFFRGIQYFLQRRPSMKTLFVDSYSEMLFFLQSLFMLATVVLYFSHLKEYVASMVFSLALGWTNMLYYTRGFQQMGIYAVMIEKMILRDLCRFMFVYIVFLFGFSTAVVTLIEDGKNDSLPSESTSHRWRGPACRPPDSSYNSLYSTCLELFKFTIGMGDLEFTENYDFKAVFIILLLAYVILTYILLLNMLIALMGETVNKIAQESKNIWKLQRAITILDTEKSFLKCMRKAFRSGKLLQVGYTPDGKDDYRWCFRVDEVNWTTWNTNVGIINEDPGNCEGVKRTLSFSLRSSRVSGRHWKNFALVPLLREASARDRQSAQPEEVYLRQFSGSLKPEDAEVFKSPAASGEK

Ki, < 1000 nM:
FC(F)(F)c1ccc(Nc2nc(CCN3CCc4ccccc4C3)nc3cc(-c4ncccc4C(F)(F)F)ccc23)cc1 [Compound 393, [2-[2-(3,4-Dihydro-1H-isoquinolin-2-yl)-ethyl]-7-(3-trifluoromethyl-pyridin-2-yl)-quinazolin-4-yl]-(4-trifluoromethyl-phenyl)-amine]
CN(CCc1nc(Nc2ccc(C(F)(F)F)cc2)c2ccc(-c3ncccc3C(F)(F)F)cc2n1)Cc1cccc(F)c1 [Compound 394, [2-{2-[(3-Fluoro-benzyl)-methyl-amino]-ethyl}-7-(3-trifluoromethyl-pyridin-2-yl)-quinazolin-4-yl]-(4-trifluoromethyl-phenyl)-amine]
Cc1ccccc1CN(C)CCc1nc(Nc2ccc(C(F)(F)F)cc2)c2ccc(-c3ncccc3C(F)(F)F)cc2n1 [Compound 395, [2-{2-[Methyl-(2-methyl-benzyl)-amino]-ethyl}-7-(3-trifluoromethyl-pyridin-2-yl)-quinazolin-4-yl]-(4-trifluoromethyl-phenyl)-amine]
CN(CCc1nc(Nc2ccc(C(F)(F)F)cc2)c2ccc(-c3ncccc3C(F)(F)F)cc2n1)Cc1ccccc1F [Compound 396, [2-{2-[(2-Fluoro-benzyl)-methyl-amino]-ethyl}-7-(3-trifluoromethyl-pyridin-2-yl)-quinazolin-4-yl]-(4-trifluoromethyl-phenyl)-amine]
FC(F)(F)c1ccc(Nc2nc(CCN(Cc3ccccc3)C3CC3)nc3cc(-c4ncccc4C(F)(F)F)ccc23)cc1 [Compound 397, [2-[2-(Benzyl-cyclopropyl-amino)-ethyl]-7-(3-trifluoromethyl-pyridin-2-yl)-quinazolin-4-yl]-(4-trifluoromethyl-phenyl)-amine]
CN(CCc1ccccc1)CCc1nc(Nc2ccc(C(F)(F)F)cc2)c2ccc(-c3ncccc3C(F)(F)F)cc2n1 [Compound 398, [2-[2-(Methyl-phenethyl-amino)-ethyl]-7-(3-trifluoromethyl-pyridin-2-yl)-quinazolin-4-yl]-(4-trifluoromethyl-phenyl)-amine]
FC(F)(F)c1ccc(Nc2nc(CCN3CCCCC3)nc3cc(-c4ncccc4C(F)(F)F)ccc23)cc1 [Compound 399, [2-Piperidin-1-ylethyl-7-(3-trifluoromethyl-pyridin-2-yl)-quinazolin-4-yl]-(4-trifluoromethyl-phenyl)-amine]
FC(F)(F)c1ccc(Nc2nc(CCN3CCOCC3)nc3cc(-c4ncccc4C(F)(F)F)ccc23)cc1 [Compound 400, [2-Morpholin-4-ylethyl-7-(3-trifluoromethyl-pyridin-2-yl)-quinazolin-4-yl]-(4-trifluoromethyl-phenyl)-amine]
CC1CCN(CCc2nc(Nc3ccc(C(F)(F)F)cc3)c3ccc(-c4ncccc4C(F)(F)F)cc3n2)CC1 [Compound 401, [2-(4-Methyl-piperidin-1-ylethyl)-7-(3-trifluoromethyl-pyridin-2-yl)-quinazolin-4-yl]-(4-trifluoromethyl-phenyl)-amine]
FC(F)(F)c1ccc(Nc2nc(CCN3CCCCCC3)nc3cc(-c4ncccc4C(F)(F)F)ccc23)cc1 [Compound 402]
FC(F)(F)c1ccc(Nc2nc(CCN3CCSCC3)nc3cc(-c4ncccc4C(F)(F)F)ccc23)cc1 [Compound 403, [2-Thiomorpholin-4-ylethyl-7-(3-trifluoromethyl-pyridin-2-yl)-quinazolin-4-yl]-(4-trifluoromethyl-phenyl)-amine]
CC1(C)CCCN(CCc2nc(Nc3ccc(C(F)(F)F)cc3)c3ccc(-c4ncccc4C(F)(F)F)cc3n2)C1 [Compound 404, [2-(3,3-Dimethyl-piperidin-1-ylethyl)-7-(3-trifluoromethyl-pyridin-2-yl)-quinazolin-4-yl]-(4-trifluoromethyl-phenyl)-amine]
FC(F)(F)c1ccc(Nc2nc(CCN3CCCCCCC3)nc3cc(-c4ncccc4C(F)(F)F)ccc23)cc1 [Compound 405, [2-Azocan-1-ylethyl-7-(3-trifluoromethyl-pyridin-2-yl)-quinazolin-4-yl]-(4-trifluoromethyl-phenyl)-amine]
CC1CCN(CCc2nc(Nc3ccc(C(F)(F)F)cc3)c3ccc(-c4ncccc4C(F)(F)F)cc3n2)CC(C)(C)C1 (stereo not shown) [Compound 406, (4-Trifluoromethyl-phenyl)-{7-(3-trifluoromethyl-pyridin-2-yl)-2-[2-(3,3,5-trimethyl-azepan-1-yl)-ethyl]-quinazolin-4-yl}-amine]
FC(F)(F)c1ccc(Nc2nc(CCN3CCC4(CC3)OCCO4)nc3cc(-c4ncccc4C(F)(F)F)ccc23)cc1 [Compound 407, [2-[2-(1,4-Dioxa-8-aza-spiro[4.5]dec-8-yl)-ethyl]-7-(3-trifluoromethyl-pyridin-2-yl)-quinazolin-4-yl]-(4-trifluoromethyl-phenyl)-amine]
FC(F)(F)c1ccc(Nc2nc(CCN3CCCC4CCCCC43)nc3cc(-c4ncccc4C(F)(F)F)ccc23)cc1 (stereo not shown) [Compound 408, [2-(Octahydro-quinolin-1-ylethyl)-7-(3-trifluoromethyl-pyridin-2-yl)-quinazolin-4-yl]-(4-trifluoromethyl-phenyl)-amine]
CN(C)CCc1nc(Nc2ccc(C(F)(F)F)cc2)c2ccc(-c3ncccc3C(F)(F)F)cc2n1 [Compound 409, [2-Dimethylaminoethyl-7-(3-trifluoromethyl-pyridin-2-yl)-quinazolin-4-yl]-(4-trifluoromethyl-phenyl)-amine]
C=CCN(C)CCc1nc(Nc2ccc(C(F)(F)F)cc2)c2ccc(-c3ncccc3C(F)(F)F)cc2n1 [Compound 410, [2-[(Allyl-methyl-amino)-ethyl]-7-(3-trifluoromethyl-pyridin-2-yl)-quinazolin-4-yl]-(4-trifluoromethyl-phenyl)-amine]
CCN(CC)CCc1nc(Nc2ccc(C(F)(F)F)cc2)c2ccc(-c3ncccc3C(F)(F)F)cc2n1 [Compound 411, [2-Diethylaminoethyl-7-(3-trifluoromethyl-pyridin-2-yl)-quinazolin-4-yl]-(4-trifluoromethyl-phenyl)-amine]
CCCN(C)CCc1nc(Nc2ccc(C(F)(F)F)cc2)c2ccc(-c3ncccc3C(F)(F)F)cc2n1 [Compound 412, [2-[(Propyl-methyl-amino)-ethyl]-7-(3-trifluoromethyl-pyridin-2-yl)-quinazolin-4-yl]-(4-trifluoromethyl-phenyl)-amine]
CCCCN(C)CCc1nc(Nc2ccc(C(F)(F)F)cc2)c2ccc(-c3ncccc3C(F)(F)F)cc2n1 [Compound 413, [2-[(Butyl-methyl-amino)-ethyl]-7-(3-trifluoromethyl-pyridin-2-yl)-quinazolin-4-yl]-(4-trifluoromethyl-phenyl)-amine]
CCN(CCc1nc(Nc2ccc(C(F)(F)F)cc2)c2ccc(-c3ncccc3C(F)(F)F)cc2n1)C(C)C [Compound 414, [2-[(Isopropyl-ethyl-amino)-ethyl]-7-(3-trifluoromethyl-pyridin-2-yl)-quinazolin-4-yl]-(4-trifluoromethyl-phenyl)-amine]
